Test [1] deals with GST-Bcl-2 (Homo sapiens, UniProt P10415). Description: TR-FRET binding assay, GST-Bcl-2 with F-Bak peptide probe. Conditions: for pKi: TR-FRET Binding Affinity, GST-Bcl-2, F-Bak peptide probe; for Binding selectivity ratio (Bcl-XL Ki/Bcl-2 Ki): ratio of TR-FRET Ki values, Bcl-XL over Bcl-2. Summed up:
(§1)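 Ki was derived with Wang's equation for competitive binding of two ligands. The read-out was time-resolved fluorescence after a 3 h room-temperature incubation, using a Tb-labelled antibody donor and the F-Bak peptide acceptor (excitation 340/35 nm). Test compounds entered as DMSO serial dilutions starting at 50 μM, which was the 2× concentration.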
Background: Time-resolved FRET reads energy transfer from a long-lived donor to a nearby acceptor.

Test [2] concerns FL5.12/Bcl-2 cells. Description: FL5.12/Bcl-2 cell viability assay under IL-3 withdrawal (CellTitre Glo). It counts as cell-based, murine. Conditions: Mus musculus, IL-3 withdrawn 48 hrs, then 24 hrs with compound. Put shortly:
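Murine IL-3-dependent FL5.12 cells stably overexpressing Bcl-2 were deprived of IL-3 (WEHI-3B conditioned medium omitted) for 48 hrs, then exposed to various compound concentrations for a further 24 hrs at 37° C, 5% CO2. Viability was read by CellTitre Glo luminescence.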

In test [3] the target is GST-Bcl-XL (Homo sapiens, UniProt Q07817). Description: TR-FRET binding assay, GST-Bcl-XL with F-Bak peptide probe. Conditions: TR-FRET Binding Affinity, GST-Bcl-XL, F-Bak peptide probe. Put shortly:
as §1

pEC50, pKi: −log10 of the molar value.

Sequence of GST-Bcl-2 (P10415 whole entry): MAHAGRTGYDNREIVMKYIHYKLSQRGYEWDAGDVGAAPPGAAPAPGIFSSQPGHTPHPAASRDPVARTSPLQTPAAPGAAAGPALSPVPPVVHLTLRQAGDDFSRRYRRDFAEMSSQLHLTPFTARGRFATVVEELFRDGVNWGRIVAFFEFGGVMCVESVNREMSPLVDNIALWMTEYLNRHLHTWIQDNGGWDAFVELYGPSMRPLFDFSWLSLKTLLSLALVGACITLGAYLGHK
Sequence of GST-Bcl-XL (Q07817 whole entry): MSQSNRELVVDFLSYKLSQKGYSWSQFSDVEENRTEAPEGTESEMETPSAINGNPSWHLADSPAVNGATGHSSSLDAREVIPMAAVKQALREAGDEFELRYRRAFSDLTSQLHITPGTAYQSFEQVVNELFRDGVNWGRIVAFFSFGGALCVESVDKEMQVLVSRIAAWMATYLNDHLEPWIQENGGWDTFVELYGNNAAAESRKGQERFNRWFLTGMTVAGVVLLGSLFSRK

In general, pKi refers to the negative decadic logarithm of the Ki, by convention in mol/L. Higher therefore signals a low Ki. In general, pEC50 refers to the negative decadic logarithm of the EC50, by convention in mol/L. Take `CN1CCC(Nc2ccc(S(=O)(=O)NC(=O)c3ccc(N4CCN(CC5=C(c6ccc(Cl)cc6)CC(C)(C)CC5)CC4)cc3Nc3cccnc3)cc2[N+](=O)[O-])CC1` [Example 396, 4-(4-{[2-(4-chlorophenyl)-4,4-dimethylcyclohex-1-en-1-yl]methyl}piperazin-1-yl)-N-({4-[(1-methylpiperidin-4-yl)amino]-3-nitrophenyl}sulfonyl)-2-(pyridin-3-ylamino)benzamide]: in test [1], the pKi was 6.94 and the “Binding selectivity ratio (Bcl-XL Ki/Bcl-2 Ki)” value (shortened to “Binding selectivity ratio”) was more than 5705.9. For the same molecule, the pEC50 in test [2] was less than 6.30. Besides, in test [3], the pKi was less than 3.18.
With `CC1(C)CCC(CN2CCN(c3ccc(C(=O)NS(=O)(=O)c4ccc(NC5CCN(C6CCOCC6)CC5)c([N+](=O)[O-])c4)c(Oc4cccnc4)c3)CC2)=C(c2ccc(Cl)cc2)C1` [Example 398, 4-(4-{[2-(4-chlorophenyl)-4,4-dimethylcyclohex-1-en-1-yl]methyl}piperazin-1-yl)-N-({3-nitro-4-[(1-tetrahydro-2H-pyran-4-ylpiperidin-4-yl)amino]phenyl}sulfonyl)-2-(pyridin-3-yloxy)benzamide], in test [1], the pKi is 8.91 and the “Binding selectivity ratio” value was 67.7. Further, in test [2], the pEC50 is 6.48. Also, the pKi in test [3] was 7.08.
Take `CC1(C)CCC(CN2CCN(c3ccc(C(=O)NS(=O)(=O)c4ccc(NCC5CCOCC5)c([N+](=O)[O-])c4)c(Oc4cccc5c4CCNC5)c3)CC2)=C(c2ccc(Cl)cc2)C1` [Example 399, 4-(4-{[2-(4-chlorophenyl)-4,4-dimethylcyclohex-1-en-1-yl]methyl}piperazin-1-yl)-N-({3-nitro-4-[(tetrahydro-2H-pyran-4-ylmethyl)amino]phenyl}sulfonyl)-2-(1,2,3,4-tetrahydroisoquinolin-5-yloxy)benzamide]: in test [1], the pKi is 8.53 and the “Binding selectivity ratio” value is on record as more than 225764.5. For the same molecule, in test [2], the pEC50 is less than 6.30. Also, the pKi in test [3] was less than 3.18.
For `CC1(C)CCC(CN2CCN(c3ccc(C(=O)NS(=O)(=O)c4ccc(NCC5CCOCC5)c([N+](=O)[O-])c4)c(Oc4cccc5[nH]ncc45)c3)CC2)=C(c2ccc(Cl)cc2)C1` [Example 400, 4-(4-{[2-(4-chlorophenyl)-4,4-dimethylcyclohex-1-en-1-yl]methyl}piperazin-1-yl)-2-(1H-indazol-4-yloxy)-N-({3-nitro-4-[(tetrahydro-2H-pyran-4-ylmethyl)amino]phenyl}sulfonyl)benzamide], the pKi is more than 11.00 in test [1] and 7.44 in test [3]. Moreover, the pEC50 in test [2] was 8.07.
For the molecule `CC1(C)CCC(CN2CCN(c3ccc(C(=O)NS(=O)(=O)c4ccc(NC5CCN(C6CCOCC6)CC5)c([N+](=O)[O-])c4)c(Oc4cccc5[nH]ncc45)c3)CC2)=C(c2ccc(Cl)cc2)C1` [Example 401, 4-(4-{[2-(4-chlorophenyl)-4,4-dimethylcyclohex-1-en-1-yl]methyl}piperazin-1-yl)-2-(1H-indazol-4-yloxy)-N-({3-nitro-4-[(1-tetrahydro-2H-pyran-4-ylpiperidin-4-yl)amino]phenyl}sulfonyl)benzamide], in test [1], the pKi is more than 11.00 and the “Binding selectivity ratio” value is more than 162.1. Moreover, in test [2], the pEC50 is 8.27. The pKi in test [3] was 8.79.
With `CC1(C)CCC(CN2CCN(c3ccc(C(=O)NS(=O)(=O)c4ccc(N[C@H]5CC[C@H](N6CCOCC6)CC5)c([N+](=O)[O-])c4)c(Oc4cccc5[nH]ncc45)c3)CC2)=C(c2ccc(Cl)cc2)C1` [Example 402, Trans-4-(4-{[2-(4-chlorophenyl)-4,4-dimethylcyclohex-1-en-1-yl]methyl}piperazin-1-yl)-2-(1H-indazol-4-yloxy)-N-({4-[(4-morpholin-4-ylcyclohexyl)amino]-3-nitrophenyl}sulfonyl)benzamide], the pKi in test [1] was 10.52; in test [3], 8.38. Further, the “Binding selectivity ratio” value in test [1] is reported as 137.4. Further, in test [2], the pEC50 is 7.87.
Take `CC1(C)CCC(CN2CCN(c3ccc(C(=O)NS(=O)(=O)c4ccc(NCC5CCOCC5)c([N+](=O)[O-])c4)c(Oc4cccc5[nH]cnc45)c3)CC2)=C(c2ccc(Cl)cc2)C1` [Example 403, 2-(1H-benzimidazol-4-yloxy)-4-(4-{[2-(4-chlorophenyl)-4,4-dimethylcyclohex-1-en-1-yl]methyl}piperazin-1-yl)-N-({3-nitro-4-[(tetrahydro-2H-pyran-4-ylmethyl)amino]phenyl}sulfonyl)benzamide]: the pKi in test [1] is 11.52; in test [3] it was 7.61. Also, the pEC50 in test [2] was 8.53.
`CC1(C)CCC(CN2CCN(c3ccc(C(=O)NS(=O)(=O)c4cnc(OCC5(F)CCOCC5)c(Cl)c4)c(Oc4cccc5[nH]ncc45)c3)CC2)=C(c2ccc(Cl)cc2)C1` [Example 404, N-({5-chloro-6-[(4-fluorotetrahydro-2H-pyran-4-yl)methoxy]pyridin-3-yl}sulfonyl)-4-(4-{[2-(4-chlorophenyl)-4,4-dimethylcyclohex-1-en-1-yl]methyl}piperazin-1-yl)-2-(1H-indazol-4-yloxy)benzamide]: the pKi in test [1] is 10.92; in test [3], 7.52. Moreover, the “Binding selectivity ratio” value in test [1] worked out at 2423.5. The pEC50 in test [2] was 8.63.
`CC1(C)CCC(CN2CCN(c3ccc(C(=O)NS(=O)(=O)c4cnc(OCC5(F)CCOCC5)c(Cl)c4)c(Oc4cccc5[nH]ccc45)c3)CC2)=C(c2ccc(Cl)cc2)C1` [Example 405, N-({5-chloro-6-[(4-fluorotetrahydro-2H-pyran-4-yl)methoxy]pyridin-3-yl}sulfonyl)-4-(4-{[2-(4-chlorophenyl)-4,4-dimethylcyclohex-1-en-1-yl]methyl}piperazin-1-yl)-2-(1H-indol-4-yloxy)benzamide]: in test [1], the pKi was 10.40 and the “Binding selectivity ratio” value worked out at 1394.8. Moreover, the pEC50 in test [2] is 7.93. For the same molecule, the pKi in test [3] was 7.26.
Regarding `CC1(C)CCC(CN2CCN(c3ccc(C(=O)NS(=O)(=O)c4cnc(OCC5(F)CCOCC5)c(C#N)c4)c(Oc4cccc5[nH]ncc45)c3)CC2)=C(c2ccc(Cl)cc2)C1` [Example 406, 4-(4-{[2-(4-chlorophenyl)-4,4-dimethylcyclohex-1-en-1-yl]methyl}piperazin-1-yl)-N-({5-cyano-6-[(4-fluorotetrahydro-2H-pyran-4-yl)methoxy]pyridin-3-yl}sulfonyl)-2-(1H-indazol-4-yloxy)benzamide], the pKi in test [1] was 10.46; in test [3], 7.35. The pEC50 in test [2] was 7.69.
Regarding `CC1(C)CCC(CN2CCN(c3ccc(C(=O)NS(=O)(=O)c4ccc(N[C@@H]5CCN(CC(F)F)C5)c([N+](=O)[O-])c4)c(Oc4cccc5[nH]cnc45)c3)CC2)=C(c2ccc(Cl)cc2)C1` [Example 407, 2-(1H-benzimidazol-4-yloxy)-4-(4-{[2-(4-chlorophenyl)-4,4-dimethylcyclohex-1-en-1-yl]methyl}piperazin-1-yl)-N-[(4-{[(3R)-1-(2,2-difluoroethyl)pyrrolidin-3-yl]amino}-3-nitrophenyl)sulfonyl]benzamide], the negative-log Ki (pKi) is 10.82 in test [1] and 7.13 in test [3]. Besides, in test [1], the “Binding selectivity ratio” value is 4930.6. Further, the pEC50 in test [2] is 8.09.

Source of the values: patent publication US9073855B2, “BCL-2 selective apoptosis-inducing agents for the treatment of cancer and immune diseases” (AbbVie Inc., priority 2008, dated 2015).
